The supplement of paper PMC10307832

Assays:
Experiment in all cases: relative viability (nuclei count vs DMSO), 5 days (fraction); higher = more cells survive
IPA-3 + Navitoclax = compound: C1=CC=C2C(=C1)C=CC(=C2SSC3=C(C=CC4=CC=CC=C43)O)O [IPA-3] + CC1(C)CCC(c2ccc(Cl)cc2)=C(CN2CCN(c3ccc(C(=O)NS(=O)(=O)c4ccc(N[C@H](CCN5CCOCC5)CSc5ccccc5)c(S(=O)(=O)C(F)(F)F)c4)cc3)CC2)C1 [Navitoclax] (partner 0.5 µM)
Method in brief: (§1)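 Relative viability is defined as nuclei in treated wells over nuclei in vehicle wells. Duplicate plates were run and medians reported. Lung cancer cell lines in 1536-well plates were dosed by pin tool one day after seeding, with one drug or with a fixed anchor-drug dose plus five library-drug doses (not always all listed) in √10 steps, and nuclei were counted after 5 days.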

IPA-3 + Alpelisib = compound: C1=CC=C2C(=C1)C=CC(=C2SSC3=C(C=CC4=CC=CC=C43)O)O [IPA-3] + Cc1nc(NC(=O)N2CCC[C@H]2C(N)=O)sc1-c1ccnc(C(C)(C)C(F)(F)F)c1 [Alpelisib] (partner 2 µM)
Method in brief: as §1

Doramapimod + Tozasertib = compound: Cc1ccc(-n2nc(C(C)(C)C)cc2NC(=O)Nc2ccc(OCCN3CCOCC3)c3ccccc23)cc1 [Doramapimod] + Cc1cc(Nc2cc(N3CCN(C)CC3)nc(Sc3ccc(NC(=O)C4CC4)cc3)n2)n[nH]1 [Tozasertib] (partner 0.1 µM)
Method in brief: as §1

RAF265 + Bortezomib = compound: Cn1c(Nc2ccc(C(F)(F)F)cc2)nc2cc(Oc3ccnc(-c4ncc(C(F)(F)F)[nH]4)c3)ccc21 [RAF265] + CC(C)C[C@H](NC(=O)[C@H](Cc1ccccc1)NC(=O)c1cnccn1)B(O)O [Bortezomib] (partner 0.002 µM)
Method in brief: as §1

Cell Line: UMC-11
- relative viability (IPA-3 + Navitoclax; first compound 0.2 µM): 0.319
- relative viability (IPA-3 + Navitoclax; first compound 0.6325 µM): 0.306
- relative viability (IPA-3 + Navitoclax; first compound 2 µM): 0.321
- relative viability (IPA-3 + Navitoclax; first compound 6.325 µM): 0.367
- relative viability (IPA-3 + Navitoclax; first compound 20 µM): 0.462
- relative viability (IPA-3 + Alpelisib; first compound 0.2 µM): 1.22
- relative viability (IPA-3 + Alpelisib; first compound 0.6325 µM): 0.962
- relative viability (IPA-3 + Alpelisib; first compound 2 µM): 1.07
- relative viability (IPA-3 + Alpelisib; first compound 6.325 µM): 1.01
- relative viability (IPA-3 + Alpelisib; first compound 20 µM): 1.07
- relative viability (Doramapimod + Tozasertib; first compound 0.02 µM): 0.2
- relative viability (Doramapimod + Tozasertib; first compound 0.06325 µM): 0.174
- relative viability (Doramapimod + Tozasertib; first compound 0.2 µM): 0.199
- relative viability (Doramapimod + Tozasertib; first compound 0.6325 µM): 0.195
- relative viability (Doramapimod + Tozasertib; first compound 2 µM): 0.205
- relative viability (RAF265 + Bortezomib; first compound 0.01 µM): 0.624
- relative viability (RAF265 + Bortezomib; first compound 0.03162 µM): 0.724
- relative viability (RAF265 + Bortezomib; first compound 0.1 µM): 0.758
- relative viability (RAF265 + Bortezomib; first compound 0.3162 µM): 0.745
- relative viability (RAF265 + Bortezomib; first compound 1 µM): 0.537
